One data set deals with PBMC. The experiment in a line: Microdose-induced oxaliplatin-DNA adduct frequency by AMS. Format: in vivo, human. The procedure:
The plasma samples were additionally processed to isolate PBMC, and the DNA was extracted and analyzed using AMS to calculate the oxaliplatin-DNA adduct frequency (both monoadducts and diadducts combined) (FIG. 17B). […] These adduct levels then decrease substantially out to 48 hours post microdosing. […] Overall, the plasma PK and time course of oxaliplatin-DNA adduct formation and repair in PBMC allowed determination of the best time to dose patients prior to biopsy in order to maximize the oxaliplatin-DNA adduct formation, allow for repair in those patients with high repair capacity, minimize the risk of radioactive contamination of PBMC and tumor samples, and also minimize the risk of radioactive contamination of the operating room by blood-borne radiocarbon.
Plasma samples were collected, filtered, and counted by liquid scintillation counting to determine plasma oxaliplatin levels. […] The range of microdose-induced adduct levels (frequencies) for the three colorectal patients was 0.1-6 adducts per 10^8 nt.

In another data set the test system is cancer patients. The experiment in a line: Patient toxicity related to the microdose. The class given is in vivo, human. The settings on record: IV microdose, 2.0×10^6 DPM/kg.
Data set [1] is described as follows: Human plasma pharmacokinetics of oxaliplatin microdose. Format: in vivo. The following applies: metastatic breast cancer patient, IV microdose.
Method: Single agent oxaliplatin chemotherapy is given by IV at a personalized dose of 130 mg/m^2 of body surface area using the Du Bois and Du Bois formula (Du Bois, D., and E. F. Du Bois. “A formula to estimate the approximate surface area if height and weight be known. 1916.” Nutrition (Burbank, Los Angeles County, Calif.) 5.5 (1989): 303).
Radiolabeled oxaliplatin containing C^14 carbon atoms in the cyclohexane ring was formulated for human use as a sterile, pyrogen free solution at 0.5 mg/mL in water. […] Unlabeled oxaliplatin and [^14C]oxaliplatin were mixed just before dosing to achieve the required microdose, and injected through the peripheral vein at one arm. Peripheral blood specimens were drawn into BD Vacutainer CPT' tubes with sodium heparin from the other arm at specific time points before and after the administration of the microdose. Plasma samples collected at −5 min, 5 min, 15 min, 30 min, 2 h, 4 h, 8 h, 24 h, and 48 h post microdose injection were analyzed by liquid scintillation counting (FIG. 17A).
Data set [2] is classed as physicochemical. The following applies: 0.5 mg/mL in water.
Method: Radiolabeled carboplatin containing C^14 carbon atoms in the cyclobutane dicarboxylic acid group was formulated for human use as a sterile, pyrogen free solution at 5 mg/mL in water.
The subject of data set [3] is 5637. The data set is described as follows: Oxaliplatin-DNA adduct formation and repair by AMS. Format: cell-based, human. The procedure: (§1) To characterize the oxaliplatin-DNA adduct frequency in these cell lines, cells from each cell line were seeded in 60-mm dishes at a density of 1×10^6 cells/dish and allowed to attach overnight in a 37° C. humidified atmosphere containing 5% CO2. […] The cells were then washed twice with phosphate-buffered solution (PBS) and maintained thereafter with oxaliplatin-free culture media. DNA was harvested at hours 0, 2, 4, 8, 24, 28 and 48 hours using a Promega Wizard DNA Purification Kit. Ten micrograms of DNA per sample was converted to graphite and measured by AMS for ^14C quantification. Triplicate sets of AMS experiments were performed and the data was plotted as time vs oxaliplatin-DNA adducts per 10^8 nt.
(§2) Statistics were calculated with n=3 for each cell line. ANOVA analysis of IC50 and AUC data were based on a one-sided t-test.

For data set [4], the system named is 5637R. The data set is described as follows: Oxaliplatin-DNA adduct formation and repair by AMS. The class given is cell-based, human. As for the experimental part: as §1, §2
For data set [5], the system named is five bladder cancer cell lines (5637, T24, TCCSUP, HT1197, and J82). The experiment in a line: Oxaliplatin-DNA adducts by AMS in cell culture. Format: cell-based. As for the experimental part: (§3) The cell lines were purchased from the American Type Culture Collection (ATCC, Manassas, Va.) and cultured in the recommended media.
as §1, with “Cells” for “To characterize the oxaliplatin-DNA adduct frequency in these cell lines, cells from each cell line”, “24” for “24, 28 and 48”, “the modified” for “a Promega”, “procedure described previously.” for “DNA Purification Kit.”, “nt. […] Oxaliplatin-DNA monoadducts could be detected in all cell lines at all time points. […] Therefore, drug-DNA damage from microdoses of oxaliplatin are predictive of the extent of DNA modification caused by the therapeutic dose in cell culture.” for “nt.”

Data set [6] can be described thus: Human plasma pharmacokinetics of carboplatin microdose, liquid scintillation counting. The class given is in vivo. The following applies: four patients. As for the experimental part: Although the pharmacokinetics of carboplatin are well known for therapeutic doses, it is not known if human pharmacokinetic parameters obtained using a microdose of carboplatin will track those obtained with therapeutic carboplatin dosing. […] This is a requirement for this diagnostic assay to be predictive of response to a therapeutic dose. The pharmacokinetics of microdose carboplatin were also measured in several different patients along with the kinetics of carboplatin-DNA monoadduct formation and repair in PBMC to establish that 24 hours post administration of a microdose of carboplatin is an appropriate time for sampling a patient for this predictive diagnostic assay.
Two of the bladder cancer patients received two doses of [^14C]carboplatin, including the initial diagnostic microdose and a second microdose at the time of full therapeutic dose. This allowed us to compare the pharmacokinetics of carboplatin in plasma after both microdosing and therapeutic dosing (FIG. 11A). […] Therefore, microdosing and therapeutic dosing yield similar carboplatin pharmacokinetics in human patients.
The pharmacokinetics of carboplatin administered as a microdose was assessed in four patients (two with bladder cancer and two with NSLC) for the purpose of comparing interpatient variability and establishing the optimum time point for tumor biopsy sample acquisition.

A further data set deals with H23 2A tumor xenograph. The experiment in a line: Tumor response to therapeutic carboplatin in xenograft. The class given is in vivo, nude mice. The settings on record: H23 2A xenograph; single IV 37.3 mg/kg; 14 days. An excerpt: (§4) Xenograft mouse tumors consisting of one carboplatin resistant and one sensitive tumor type were established for in vivo evaluation of carboplatin-DNA monoadduct formation and repair in tumor tissue and for in vivo evaluation of tumor response to therapeutic dosing with carboplatin. Tumor xenografts were established in 1-2 month old nude mice by injecting approximately one million cells into the left and right flanks, and allowed to develop tumors of less than 1 cm^3 over approximately 4 weeks prior to DNA adduct studies. Mice bearing resistant and sensitive tumors were exposed to either a microdose or therapeutic dose of carboplatin by tail vein injection. DNA isolated from tumor tissue was evaluated for carboplatin-DNA monoadduct frequency levels as a function of time. For tumor response, mice bearing resistant and sensitive tumors were therapeutically treated with a single IV injection of 37.3 mg/kg of carboplatin and then examined for tumor growth as assessed by measuring palpable tumors with a caliper and calculating tumor volume.
(§5) Mice xenografted with sensitive (H232A) and resistant (A549) lung cancer cell lines were infused with a therapeutic dose of carboplatin to assess tumor response. The tumors were measured daily over 14 days post infusion (FIG. 10C). Tumor size was normalized as the ratio of tumor diameter to the tumor diameter measured on day 0 (no change=1.0). […]

For another data set, the system named is A549 tumor xenograph. Described as above. The class given is in vivo, nude mice. The settings on record: single IV 37.3 mg/kg, 14 days.
Source text: as §4, §5

The conditions of data set [7]: cited from earlier work.
For data set [8], the system named is 5637. The experiment in a line: MTT assay (IC50). Format: cell-based, human. The settings on record: Homo sapiens, 72 hours. The procedure:
Thus, we measured the IC50 of the six NSCLC cell lines from Example 2 to both cisplatin and carboplatin to determine if the sensitivity of these six NSCLC cell lines to the two drugs are correlated.
as §3
(§6) Drug-DNA adduct formation and repair was measured by accelerator mass spectrometry.
(§7) These two cell lines were also cultured with a range of concentrations of cisplatin, carboplatin, gemcitabine, doxorubicin, methotrexate and vinblastine for 72 hours to determine IC50 for these other drugs (FIG. 16C). These drugs were chosen because of their frequent use in the treatment of bladder cancer.

In data set [9] the test system is 5637R. The experiment in a line: MTT assay (IC50). The settings on record: Homo sapiens, 72 hours. The class given is cell-based. The procedure: as §6
To confirm that 5637 was the original ATCC cell line, and that 5637R originated from the parental 5637 cell line, both cultures were sent to the ATCC Cell Line Authentication Service for cell verification per the ATCC protocol. More specifically, fifteen short tandem repeat (STR) loci plus the gender determining locus, amelogenin, were amplified using the commercially available PowerPlex® 16HS Kit from Promega.
as §7

The mark [10] stands for this setting: 24 hour culture without oxaliplatin.
The mark [11] stands for this setting: 5637 (parental, Example 11), MTT.

Method for cancer patients: Radiolabeled carboplatin containing C^14 carbon atoms in the cyclobutane dicarboxylic acid group was formulated for human use as a sterile, pyrogen free solution at 5 mg/mL in water. […] Microdoses of the [^14C]Carboplatin were administered to human cancer patients as a diagnostic reagent, followed by full dose platinum-based chemotherapy and evaluation of response. Within four weeks of the [^14C]carboplatin microdose, these patients received standard of care chemotherapy for their disease, which included either carboplatin or cisplatin. […] Toxicity of the [^14C]carboplatin diagnostic reagent administered as a microdose was assessed using Common Terminology Criteria for Adverse Events (CTCAE).
The dose of carboplatin in the diagnostic microdose was chosen to be sub-toxic and non-therapeutic, to minimize patient chemical and radiation exposure, and to result in AMS measurable carboplatin-DNA monoadducts. Nineteen patients have been administered at least one microdose of [^14C]carboplatin via IV infusion as a diagnostic reagent. Patient toxicity related to the microdose was monitored from the time of IV microdose until the patients received their first chemotherapy.

Consider `N[C@@H]1CCCC[14C@H]1N.O=C([O-])C(=O)[O-].[Pt+2]` [[^14C]oxaliplatin], for which the “maximum oxaliplatin-DNA adducts in PBMC” value in the data set on PBMC (metastatic breast cancer patient, microdose, first 4 hours) was determined as 8 adducts per 10^8 nt. Also, the “range of microdose-induced adduct levels (frequencies)” value in the data set on PBMC (three colorectal patients, PBMC) was 0.1-6 adducts per 10^8 nt. Besides, the “tolerability of the radiolabeled microdose” value with cancer patients is reported as “well tolerated”. In addition, the “T1/2 (α), first (fast) phase” value in [1] was found to be 13.3 min. Also, the stability to freeze/thaw entry in data set [2] is on record as “stable to free/thaw with no observed precipitation”. Also, the “loss of radiopurity per year” value in [2] (storage at −20° C.) is less than 2%. Also, the “oxaliplatin-DNA adducts at 24 hours” value in the data set on 5637 [3] (10 μM for 24 hours) is reported as 710.0±32.2 adducts per 10^8 nucleotide; in the data set on 5637R [4] (10 μM for 24 hours) it was 259.2±37.3 adducts per 10^8 nucleotide. Also, the values for the repair rate in the data set on 5637 [3] (setting [10]) and with 5637R [4] (setting [10]) were 1.34±0.30 adducts per 10^8 nucleotides-hour and 3.48±0.15 adducts per 10^8 nucleotide-hour, respectively. The “area under curve (AUC) of oxaliplatin-DNA adducts” value in the data set on 5637 [3] (48 hour study time period) is listed as 27,720±2,985 adducts per 10^8 nucleotide-hour; with 5637R [4] (48 hour study time period), 9,426±2457 adducts per 10^8 nucleotide-hour. Also, the “DNA damage concentrations (total oxaliplatin-DNA adducts)” value in [5] (microdose, 0.1 μM oxaliplatin for 4 hours) is reported as 50-100 oxaliplatin-DNA adducts per 10^8 nt; in data set [5] (therapeutic dose, 10 μM oxaliplatin for 4 hours), 5,000-10,000 oxaliplatin-DNA adducts per 10^8 nt.
In the case of `N.N.O=C([O-])C1(C(=O)[O-])CCC1.[Pt+2]` [carboplatin], the “time to clearance from the blood” value in data set [6] is not above 24 h. For the same molecule, the “tumor response (tumor growth)” value is listed as “did not display any growth” in the data set with H23 2A tumor xenograph and “continued to grow” in the data set on A549 tumor xenograph. Besides, the “in vivo half-life in patients” value in data set [7] (in vivo) is 78 to 360 min.
As for `COc1cccc2c1C(=O)c1c(O)c3c(c(O)c1C2=O)C[C@@](O)(C(=O)CO)C[C@@H]3O[C@H]1C[C@H](N)[C@H](O)[C@H](C)O1` [doxorubicin], the values for the IC50 with 5637 [8] (setting [11]) and in the data set with 5637R [9] (MTT) were 290 nM and 270 nM, respectively.
For `Nc1ccn([C@@H]2O[C@H](CO)[C@@H](O)C2(F)F)c(=O)n1` [gemcitabine] the same measures were 120 nM and 1440 nM.
For `CN(Cc1cnc2nc(N)nc(N)c2n1)c1ccc(C(=O)N[C@@H](CCC(=O)O)C(=O)O)cc1` [methotrexate] the same measures were 2010 nM and 1240 nM.
With `O=C1[O][Pt]2([NH][C@@H]3CCCC[C@H]3[NH]2)[O]C1=O` [oxaliplatin, reference compound], the Cmax in data set [7] (therapeutically treated patients, read-out: plasma Cmax) was approximately 10 µM.
Consider `CC[C@]1(O)C[C@@H]2CN(CCc3c([nH]c4ccccc34)[C@@](C(=O)OC)(c3cc4c(cc3OC)N(C)[C@H]3[C@@](O)(C(=O)OC)[C@H](OC(C)=O)[C@]5(CC)C=CCN6CC[C@]43[C@@H]65)C2)C1` [vinblastine], for which the figures for the IC50 in the data set with 5637 [8] (5637) and in the data set with 5637R [9] were 0.6 nM and 0.61 nM, respectively.

The values above are taken from US11474106B2, “Methods for cytotoxic chemotherapy-based predictive assays” (ACCELERATED MEDICAL DIAGNOSTICS, INC., priority 2015, dated 2022).
